Experimental data from the supplement of paper PMC10307832.

Experiments:
Assay in all cases: relative viability (nuclei count vs DMSO), 5 days (fraction); higher = more cells survive
[1] = compound: C1CC(C1)(C(=O)O)C(=O)O.[NH2-].[NH2-].[Pt+2] [Carboplatin] + Nc1ncn([C@H]2C[C@H](O)[C@@H](CO)O2)c(=O)n1 [Decitabine] (partner 2 µM)
Summary of the method: (§1)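 Relative viability divides the nuclei count in treated wells by that in vehicle wells. Lung cancer cell lines were seeded in 1536-well plates, dosed by pin tool the next day, and fixed and stained after 5 days in one step with final 0.05% Triton X-100, 1% formaldehyde and 1 ug/ml Hoechst. Dosing was a single drug or a fixed anchor-drug dose plus five library-drug doses (not always all listed) in √10 steps, and values are medians of duplicate plates imaged at 4×.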

[2] = compound: CC[C@H](C)N1C=C(C2=C(C=C(C=C21)C3=CN=C(C=C3)N4CCNCC4)C(=O)NCC5=C(C=C(NC5=O)C)C)C [GSK126] + O=C(c1cc(Cc2n[nH]c(=O)c3ccccc23)ccc1F)N1CCN(C(=O)C2CC2)CC1 [Olaparib] (partner 8 µM)
Summary of the method: as §1

[3] = compound: NS(=O)(=O)OC[C@@H]1C[C@@H](n2ccc3c(N[C@H]4CCc5ccccc54)ncnc32)C[C@@H]1O [MLN4924] + C[C@@H](Oc1cc(-c2cnn(C3CCNCC3)c2)cnc1N)c1c(Cl)ccc(F)c1Cl [Crizotinib] (partner 1 µM)
Summary of the method: as §1

[4] = compound: NS(=O)(=O)OC[C@@H]1C[C@@H](n2ccc3c(N[C@H]4CCc5ccccc54)ncnc32)C[C@@H]1O [MLN4924] + C[C@]1(O)C[C@@H](c2nc(-c3ccc4ccc(-c5ccccc5)nc4c3)c3c(N)nccn32)C1 [Linsitinib] (partner 1 µM)
Summary of the method: as §1

Row | Cell Line | relative viability ([1]; first compound 0.08 µM) | relative viability ([1]; first compound 0.253 µM) | relative viability ([1]; first compound 0.8 µM) | relative viability ([1]; first compound 2.53 µM) | relative viability ([1]; first compound 8 µM) | relative viability ([2]; first compound 0.08 µM) | relative viability ([2]; first compound 0.253 µM) | relative viability ([2]; first compound 0.8 µM) | relative viability ([2]; first compound 2.53 µM) | relative viability ([2]; first compound 8 µM) | relative viability ([3]; first compound 0.04 µM) | relative viability ([3]; first compound 0.1265 µM) | relative viability ([3]; first compound 0.4 µM) | relative viability ([3]; first compound 1.265 µM) | relative viability ([3]; first compound 4 µM) | relative viability ([4]; first compound 0.04 µM) | relative viability ([4]; first compound 0.1265 µM) | relative viability ([4]; first compound 0.4 µM) | relative viability ([4]; first compound 1.265 µM) | relative viability ([4]; first compound 4 µM)
1 | 201T | 0.869 | 0.822 | 0.865 | 0.791 | 0.76 | 0.867 | 0.845 | 0.831 | 0.906 | 0.886 | 1.05 | 0.994 | 0.984 | 0.401 | 0.391 | 1.22 | 1.29 | 1.17 | 0.481 | 0.505
2 | A549 | 0.259 | 0.338 | 0.279 | 0.231 | 0.18 | 0.361 | 0.297 | 0.336 | 0.333 | 0.368 | 0.772 | 0.634 | 0.416 | 0.0489 | 0.0552 | 0.635 | 0.626 | 0.496 | 0.0571 | 0.047
3 | A-427 | 0.593 | 0.562 | 0.571 | 0.527 | 0.512 | 0.704 | 0.724 | 0.701 | 0.765 | 0.837 | 0.4 | 0.239 | 0.243 | 0.149 | 0.182 | 0.686 | 0.381 | 0.315 | 0.222 | 0.217
4 | ABC-1 | 1.02 | 1.12 | 1.01 | 0.931 | 0.52 | 0.573 | 0.698 | 0.869 | 0.691 | 0.659 | 0.901 | 0.29 | 0.132 | 0.0913 | 0.223 | 0.875 | 0.795 | 0.618 | 0.238 | 0.218
5 | BEN | 0.87 | 0.714 | 0.691 | 0.634 | 0.599 | 1.23 | 1.01 | 1.16 | 1.13 | 1.12 | 0.73 | 0.38 | 0.272 | 0.172 | 0.17 | 0.765 | 0.464 | 0.319 | 0.17 | 0.188
6 | CAL-12T | – | – | – | – | – | 0.809 | 0.713 | 0.758 | 0.829 | 0.643 | 0.638 | 0.665 | 0.284 | 0.248 | 0.134 | 0.717 | 0.636 | 0.237 | 0.135 | 0.143
7 | COR-L23 | 0.402 | 0.514 | 0.412 | 0.361 | 0.21 | 0.422 | 0.33 | 0.33 | 0.354 | 0.387 | 0.588 | 0.567 | 0.431 | 0.136 | 0.0871 | 0.788 | 0.801 | 0.619 | 0.149 | 0.11
8 | COR-L 105 | 0.648 | 0.611 | 0.687 | 0.515 | 0.398 | 0.586 | 0.628 | 0.732 | 0.583 | 0.631 | 0.802 | 0.472 | 0.344 | 0.194 | 0.222 | 0.8 | 0.615 | 0.424 | 0.283 | 0.231
9 | Calu-6 | – | – | – | – | – | 0.604 | 0.664 | – | 0.612 | 0.577 | 0.677 | 0.426 | 0.197 | 0.0922 | 0.0977 | 0.946 | 0.708 | 0.317 | 0.101 | 0.109
10 | ChaGo-K-1 | 0.563 | 0.527 | 0.464 | 0.413 | 0.388 | 0.419 | 0.419 | 0.432 | 0.5 | 0.431 | 0.908 | 0.595 | 0.451 | 0.325 | 0.324 | – | – | – | – | –
11 | EBC-1 | – | – | – | – | – | 0.743 | 0.711 | 0.702 | 0.684 | 0.615 | 0.167 | 0.189 | 0.215 | 0.149 | 0.156 | 0.812 | 0.628 | 0.182 | 0.102 | 0.13
12 | EKVX | 0.4 | 0.331 | 0.389 | 0.307 | 0.283 | 0.929 | 1 | 0.808 | 1.11 | 0.816 | 0.865 | 0.654 | 0.461 | 0.226 | 0.133 | 0.949 | 0.653 | 0.471 | 0.169 | 0.127
13 | EMC-BAC-2 | 1.01 | 0.944 | 0.999 | 0.922 | 0.716 | 0.512 | 0.436 | 0.502 | 0.436 | 0.47 | 0.601 | 0.283 | 0.242 | 0.164 | 0.167 | 0.805 | 0.547 | 0.237 | 0.179 | 0.163
14 | EPLC-272H | 0.402 | 0.403 | 0.361 | 0.366 | 0.355 | 0.818 | 0.749 | 0.697 | 0.806 | 0.804 | 0.812 | 0.603 | 0.0795 | 0.136 | 0.201 | 1.14 | 1.13 | 0.147 | 0.183 | 0.216
15 | H3255 | 0.775 | 0.504 | 0.687 | 0.622 | 0.421 | 0.571 | 0.553 | 0.517 | 0.582 | 0.57 | 0.77 | 0.668 | 0.341 | 0.242 | 0.247 | 0.927 | 0.593 | 0.354 | 0.201 | 0.257
16 | HARA | 0.681 | 0.439 | 0.549 | 0.448 | 0.469 | 0.994 | 0.911 | 0.934 | 0.861 | 0.657 | 0.752 | 0.401 | 0.349 | 0.0875 | 0.0794 | 0.568 | 0.455 | 0.481 | 0.092 | 0.0886
17 | HCC-15 | 0.657 | 0.627 | 0.588 | 0.587 | 0.452 | 0.749 | 0.776 | 0.686 | 0.608 | 0.745 | 0.505 | 0.2 | 0.227 | 0.0834 | 0.0819 | 0.558 | 0.249 | 0.16 | 0.0968 | 0.104
